Here are results for one compound from article PMC3510438, “The transmembrane tyrosines Y56, Y91 and Y167 play important roles in determining the affinity and transport rate of the rabbit proton-coupled peptide transporter PepT1” (The International Journal of Biochemistry & Cell Biology, 2009).

One assay concerns the target T1, Y12F-rPepT1 (Oryctolagus cuniculus, UniProt P36836, Y12F).
T1 construct: expressed in transfected cells; host or cells: Xenopus laevis oocytes injected with cRNA
T1 sequence (P36836 1-707 Y12F): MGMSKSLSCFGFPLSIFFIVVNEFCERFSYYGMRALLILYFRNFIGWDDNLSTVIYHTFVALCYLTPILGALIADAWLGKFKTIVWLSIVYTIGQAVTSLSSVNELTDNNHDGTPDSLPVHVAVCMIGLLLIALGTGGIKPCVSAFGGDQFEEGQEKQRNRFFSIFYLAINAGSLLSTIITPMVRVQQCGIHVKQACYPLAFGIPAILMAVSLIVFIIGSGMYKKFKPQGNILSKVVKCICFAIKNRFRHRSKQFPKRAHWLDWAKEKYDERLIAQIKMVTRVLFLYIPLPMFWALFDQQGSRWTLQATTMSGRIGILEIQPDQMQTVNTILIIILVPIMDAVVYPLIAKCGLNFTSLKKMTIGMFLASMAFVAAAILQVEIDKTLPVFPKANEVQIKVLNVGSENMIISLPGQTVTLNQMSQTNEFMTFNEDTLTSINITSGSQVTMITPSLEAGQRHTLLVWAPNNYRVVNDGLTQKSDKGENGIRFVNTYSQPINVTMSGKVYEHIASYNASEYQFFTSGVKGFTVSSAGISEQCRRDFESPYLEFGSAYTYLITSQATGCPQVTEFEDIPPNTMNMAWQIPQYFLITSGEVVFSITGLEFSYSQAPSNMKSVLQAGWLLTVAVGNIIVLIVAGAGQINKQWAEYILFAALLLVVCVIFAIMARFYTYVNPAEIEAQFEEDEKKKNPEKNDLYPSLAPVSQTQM
Kind of assay: Competition of [3H]-D-Phe-L-Gln uptake into Xenopus oocytes, Ki. The class given is cell-based, rabbit. To be noted: against 0.4 μM [3H]-D-Phe-L-Gln uptake. Here is the method: (§1) rPepT1 constructs were linearised with XbaI (New England Biolabs, UK) and cRNA generated by in vitro transcription (T7 mMessage mMachine, Ambion, Cambridgeshire, UK). Xenopus laevis oocytes were obtained under MS222 anaesthesia (0.2%, w/v) in accordance with the UK Animals (Scientific Procedures) Act, 1986, and maintained at 18 °C in modified Barth's medium (88 mM NaCl, 1 mM KCl, 0.82 mM MgSO4, 2.4 mM NaHCO3, 0.42 mM CaCl2, 10 mM Hepes, 5 mM sodium pyruvate, 50 μg ml^−1 gentamicin (Fluka, Poole, UK), adjusted to pH 7.6 with 1 M NaOH). Transport measurements were performed at least 72 h after micro-injection of oocytes with 27nl cRNA (1 μg/μl), with medium changed daily.
(§2) Uptake of [^3H]-D-Phe-L-Gln (17.4 Ci/mmole, custom synthesised, Cambridge Research Biochemicals, Stockton-on-Tees, UK) was performed as previously described ([Meredith, 2004]). Briefly, 5 oocytes were incubated in 100 μl of uptake medium (95 mM NaCl, 2 mM KCl, 1 mM CaCl2, 0.42 mM MgCl2, 10 mM Tris/Hepes pH 7.4 or Tris/Mes pH 5.5) with tracer (0.4 μM) [^3H]-D-Phe-L-Gln. After incubation, the oocytes were washed sequentially five times in 1 ml of ice-cold 120 mM NaCl solution, lysed individually with 100 μl 2% (w/v) SDS and liquid scintillation counted. As a control non-injected oocytes were also incubated in uptake medium with D-Phe-L-Gln as above.
(§3) The affinity of wild-type and mutant rPepT1 transporters were assessed by competition studies with 0.4 μM [^3H]-D-Phe-L-Gln and Gly-L-Gln present in the uptake medium in concentrations from 0 to 2 mM using the protocol above, and the Ki calculated using the method of [Deves and Boyd (1989)].

A further assay deals with T2, Y345F-rPepT1 (Oryctolagus cuniculus, UniProt P36836, Y345F).
T2 construct: expressed in transfected cells; host or cells: Xenopus laevis oocytes injected with cRNA
T2 sequence (P36836 1-707 Y345F): T1 sequence (P36836 1-707 Y12F) with F12Y, Y345F
The description is as above. Format: cell-based, rabbit. To be noted: against 0.4 μM [3H]-D-Phe-L-Gln uptake. The method, then:
as §1, §2, §3

The structures appear in SMILES notation. Numbering of substitutions follows the chain as printed. Where a SMILES comes first, the peptide text is derived from it.

As for `NCC(=O)N[C@@H](CCC(N)=O)C(=O)O` [Gly-L-Gln] (H-Gly-Gln-OH), the Ki at Y12F-rPepT1 (pHout 5.5) was 220 ± 20 µM; at Y12F-rPepT1 (pHout 7.4), 90 ± 20 µM; at Y345F-rPepT1 (pHout 5.5) it was 320 ± 70 µM; at Y345F-rPepT1 (pHout 7.4), 180 ± 50 µM.

As a reminder, the Ki is a measure of affinity in units of concentration, obtained from inhibition or displacement. A low value points to a stronger hold on the target.
